Results published in patent US10456407B2, “Combination therapy for treating cancer” (Epizyme, Inc., priority 2015, dated 2019).
Where two headings read alike, the source gives them in different places.

Columns and labels:
RL cells = assay: RT2 Glucocorticoid signaling PCR array, RL (Table 4e, printed RI) cell line; assay type: cell-based; conditions: 4 days, Cpd44 1 uM, Pred 10-fold below 4-day IC50, vs DMSO, B2M-normalized
WSU-DLCL2 cells = test system: WSU-DLCL2 cells
Method: (§1) After 3 days of co-treatment, cell viability was measured via ATP content using CellTiter-Glo®
(§2) Synergy quantification is performed using the Chou-Talalay method^3 for drug combination. The Combination Index (CI) equation offers a quantitative definition for additivity (CI=1), synergism (CI<1), and antagonism (CI>1). This equation used Fa values from a constant ratio of drug combination to determine CI values. […] These Fa-CI plots are generated using the Calcusyn software.
(§3) After 3 days of co-treatment (5 days for Toledo assays), cell viability was measured via ATP content using CellTiter-Glo® (Promega) and luminescence was detected using a SpectraMax M5 microplate reader (Molecular Devices).
as §2, with “Chou-Talalay method” for “Chou-Talalay method^3”, “drug combination (Ref 1).” for “drug combination.”, “used fractional effect (Fa)” for “used Fa”, “Calcusyn for Windows software (Ref2).” for “Calcusyn software.”
(§4) Dose responses were plotted using Graphpad Prism and either 50% or 60% inhibitory concentrations were interpolated from the dose response curves.

SU-DHL10 cells = test system: SU-DHL10 cells
Method: as §1, §2, §3
as §2, with “Chou-Talalay method” for “Chou-Talalay method^3”, “drug combination (Ref 1).” for “drug combination.”, “used fractional effect (Fa)” for “used Fa”, “Calcusyn for Windows software (Ref2).” for “Calcusyn software.”
as §4

Toledo cells = conditions: Toledo (WT EZH2 ABC); drug combined with Compound 44
Method: as §1, §2, §3
as §2, with “Chou-Talalay method” for “Chou-Talalay method^3”, “drug combination (Ref 1).” for “drug combination.”, “used fractional effect (Fa)” for “used Fa”, “Calcusyn for Windows software (Ref2).” for “Calcusyn software.”
as §4

DOHH2 cells = conditions: DOHH2 (WT EZH2 GCB); drug combined with Compound 44
Method: as §1, §2, §3
as §2, with “Chou-Talalay method” for “Chou-Talalay method^3”, “drug combination (Ref 1).” for “drug combination.”, “used fractional effect (Fa)” for “used Fa”, “Calcusyn for Windows software (Ref2).” for “Calcusyn software.”
as §4

H3K27me3 = conditions: 4 days
Method: Histones were extracted from tumor samples as described above. […] The plates were sealed and incubated overnight at 4° C. The following day, plates were washed 3× with 300 ul/well PBST (PBS+0.05% Tween 20; 10×PBST, KPL #51-14-02) on a Bio Tek plate washer. Plates were blocked with 300 ul/well of diluent (PBS+2% BSA+0.05% Tween 20), incubated at RT for 2 hours, and washed 3× with PBST. All antibodies were diluted in diluent. […] Plates were incubated for 90 min at RT and washed 3× with PBST. […] Plates were washed 4× with PBST. For detection, 100 ul/well of TMB substrate (BioFx Laboratories, #TMBS) was added and plates incubated in the dark at RT for 5 min. Reaction was stopped with 100 ul/well IN H2SO4 Absorbance at 450 nm was read on SpectaMax M5 Microplate reader.

H3K27 acetylation = conditions: WSU-DLCL2, OCI-LY19, RL cells; 4 days

C[C@]12C=CC(=O)C=C1CC[C@@H]1[C@@H]2[C@@H](O)C[C@@]2(C)[C@H]1CC[C@]2(O)C(=O)CO [Prednisolone, prednisolone]
ΔΔCT (RL cells; ADARB1 mRNA): 0.413 | ΔΔCT (RL cells; AFF1 mRNA): −1.390 | ΔΔCT (RL cells; AK2 mRNA): 0.686 | ΔΔCT (RL cells; AMPD3 mRNA): −0.544 | ΔΔCT (RL cells; ANGPTL4 mRNA): 1.668 | ΔΔCT (RL cells; ANXA4 mRNA): 0.131 | ΔΔCT (RL cells; ARID68 mRNA): 0.833 | ΔΔCT (RL cells; ASPH mRNA): 0.771 | ΔΔCT (RL cells; BCL6 mRNA): 0.937 | ΔΔCT (RL cells; CEBPB mRNA): 2.638 | ΔΔCT (RL cells; CREB1 mRNA): 0.483 | ΔΔCT (RL cells; CREB3L4 mRNA): 0.129 | ΔΔCT (RL cells; DDIT4 mRNA): 1.431 | ΔΔCT (RL cells; DUSP1 mRNA): −0.153 | ΔΔCT (RL cells; EDN1 mRNA): 6.595 | ΔΔCT (RL cells; EHD3 mRNA): 0.055 | ΔΔCT (RL cells; FK8PS mRNA): −0.333 | ΔΔCT (RL cells; FOSL2 mRNA): 2.300 | ΔΔCT (RL cells; GDPD1 mRNA): 0.711 | ΔΔCT (RL cells; GLUL mRNA): 1.007 | ΔΔCT (RL cells; GOT1 mRNA): 1.467 | ΔΔCT (RL cells; H6PD mRNA): 0.935 | ΔΔCT (RL cells; HNRPLL mRNA): 0.789 | ΔΔCT (RL cells; IL1RN mRNA): −0.808 | ΔΔCT (RL cells; IL6R mRNA): 0.885 | ΔΔCT (RL cells; IL10 mRNA): −0.083 | ΔΔCT (RL cells; KLF13 mRNA): 0.346 | ΔΔCT (RL cells; LOX mRNA): −0.132 | ΔΔCT (RL cells; MT2A mRNA): 1.656 | ΔΔCT (RL cells; NFKBIA mRNA): 0.853 | ΔΔCT (RL cells; NR3C1 mRNA): 0.952 | ΔΔCT (RL cells; PDCD7 mRNA): 0.394 | ΔΔCT (RL cells; PDP1 mRNA): 0.742 | ΔΔCT (RL cells; PER1 mRNA): 2.230 | ΔΔCT (RL cells; PER2 mRNA): 0.250 | ΔΔCT (RL cells; PLEKHF1 mRNA): 1.075 | ΔΔCT (RL cells; POU2F2 mRNA): 0.797 | ΔΔCT (RL cells; RA5A3 mRNA): 1.543 | ΔΔCT (RL cells; RGS2 mRNA): 0.772 | ΔΔCT (RL cells; SGK1 mRNA): 0.848 | ΔΔCT (RL cells; SLC10A6 mRNA): −1.725 | ΔΔCT (RL cells; SNTA1 mRNA): 1.144 | ΔΔCT (RL cells; SPHK1 mRNA): 2.618 | ΔΔCT (RL cells; SPSB1 mRNA): 2.005 | ΔΔCT (RL cells; STAT5A mRNA): 0.789 | ΔΔCT (RL cells; STAT5B mRNA): 0.512 | ΔΔCT (RL cells; TBL1XR1 mRNA): 0.794 | ΔΔCT (RL cells; TNF mRNA): −0.598 | ΔΔCT (RL cells; TNFAIP3 mRNA): 1.561 | ΔΔCT (RL cells; TSC22D3 mRNA): −1.431 | ΔΔCT (RL cells; USP2 mRNA): −0.661 | ΔΔCT (RL cells; USPS4 mRNA): 0.491 | ΔΔCT (RL cells; VDR mRNA): 1.247 | ΔΔCT (RL cells; VLDLR mRNA): −1.862 | ΔΔCT (RL cells; ZFP36 mRNA): 0.925 | ΔΔCT (RL cells; ZNF281 mRNA): 0.371 | Summary of Combinations with Compound 44: potency enhanced (WSU-DLCL2 cells; WSU-DLCL2 (EZH2 mutant GCB), drug combined with Compound 44): potency enhanced 7x | growth inhibition by the drug by itself (WSU-DLCL2 cells; WSU-DLCL2, single agent): no sensitivity | Summary of Combinations with Compound 44: potency enhanced (SU-DHL10 cells; SU-DHL 10 (EZH2 mutant GCB), drug combined with Compound 44): potency enhanced 3x | growth inhibition by the drug by itself (SU-DHL10 cells; SU-DHL10, single agent): no sensitivity | Summary of Combinations with Compound 44 (combination effect) (Toledo cells): no effect | Summary of Combinations with Compound 44: potency enhanced (DOHH2 cells): potency enhanced 2x | effect on H3K27 trimethylation (H3K27me3) (H3K27me3; OCI-LY19 cells, at higher doses): modest increase | effect on H3K27 trimethylation (H3K27me3) (H3K27me3; RL cells): did not have any effect | effect on H3K27 trimethylation (H3K27me3) (H3K27me3; WSU-DLCL2 cells): did not have any effect | H3K27 acetylation levels (H3K27 acetylation): not globally affected
